Measured values: patent US12478585B2, “Micelles and vesicles for the delivery of glycopeptides” (ARIZONA BOARD OF REGENTS ON BEHALF OF THE UNIVERSITY OF …, priority 2017, dated 2025)

How the values were obtained:
[1] = CMC determination by DOSY NMR (diffusion coefficients vs inverse concentration, linear regression); type: physicochemical; details: for CMC: DOSY, in D2O, Table 1; for CMC, DOSY (Diffusion Coefficients): Table 2
Method: Sample solutions were transferred (500 μL) to 5 mm NMR tubes for automated analysis via Bruker 400 MHz spectrometer. Gradient pulse strengths and delays were standardized for all experiments, with a pulse interval (δ) of 3 ms and diffusion interval (Δ) of 200 ms; these values were experimentally determined to ensure the arrayed diffusion data would provide a reasonable curve for accurate Dc determination.
Stacked data arrays were processed in MestReNova® by setting the appropriate value “k” standardized to known self-diffusion coefficients of the bulk solvent, then applying Bayesian DOSY transform to yield pseudo-2D spectra containing the ^1H NMR spectrum vs diffusion coefficients. Averaged values for samples at each concentration were plotted vs. the inverse concentration. Data points from monomeric and aggregated samples were identified by the first signs of decreasing Dc, and linear regression of the two sets provided an intercept estimated as the CMC. Slope and intercept errors were used to calculate error.
Linear regression of the data sets, i.e. monomers and aggregates, provided an intercept estimated as the CMC. […] CMC's decreased approximately a full order of magnitude when the hydrocarbon chain length increased by two methylene groups as described previously.

[2] = CMC by surface tensiometry; type: physicochemical; details: Table 2
From the text: CMC measurements from DOSY experiments agree with previously reported surface tensiometry data for melibiosides and cellobiosides, as well as literature values for the glucosides.

[3] = literature; cited from earlier work
[4] = Aggregate radius and aggregation number (Nagg) from DOSY diffusion data (Stokes-Einstein, spherical model); type: physicochemical; details: D2O
Method: The Stokes-Einstein equation provided estimated aggregate radii from the recorded diffusion coefficients. Further, Tanford's equations: lc≤lmax≈(0.154+0.1265n)nm and v≈(27.4+26.9n)×[…] nm^3 were used to calculate the critical volume (v) and maximum length (lmax) of the hydrocarbon tail based on the length of the lipid tail, n. Energy-minimized structures in MOE® were measured to find critical length (lc) values.
The average micelle radius (r) was calculated for each concentration of the surfactants (FIG. 9). Using molecular volume (V) calculations from MOE®, a spherical model was used to estimate aggregation numbers (Nagg) for each sample (FIG. 10). In general, these values correspond well to values determined by fluorescence quenching experiments. For samples such as decyl glucoside and dodecyl melibioside, Nagg values greater than 200 are representative of both the fact that larger aggregates will form at high concentrations, and that D2O (and 0.9% NaCl in H2O) induces the formation of higher order structures. Dodecyl melibioside is an example, where previous fluorescence quenching experiments show Nagg averages at 65 in concentrations over 20 mM. For these DOSY experiments Nagg is above 300 at only 5 mM, […], and more likely describing rod-like aggregates.

[5] = Table 2, marked (lit); cited from earlier work
[6] = Solubility/precipitation behaviour in D2O, 0.9% NaCl and buffers
Method: NMR samples were prepared in triplicate by diluting concentrated stock solutions of the alkyl glycoside or SDS in D2O to concentrations below the known or estimated CMC values. For highly concentrated and/or insoluble samples, vials were warmed in an oil bath until the solution formed and was clear and cooled to RT. Precipitated samples were measured both before and after filtration of the precipitate to observe diffusion behavior. Solutions of the three glucosides were also prepared from 100 mM stock solutions of the glycolipid in dry CHCl3, with addition of D2O to aid solubility and aggregation. Soluble samples were analyzed to determine behavior in apolar conditions.

[7] = previous fluorescence quenching experiments, concentrations over 20 mM; cited from earlier work

Row | Compound | CMC [1] [mM] | CMC, DOSY (Diffusion Coefficients) [1] [mM] | CMC, Surface Tens. [2] [mM] | a0 [Lit.] (headgroup area) [3] [Å^2] | radius of "large" aggregates ([4]; samples containing precipitate) [Å] | radius of "small" aggregates ([4]; samples containing precipitate) [Å] | CMC, Surface Tens. (lit) [5] [mM] | solubility / precipitation [6] | Nagg (aggregation number) ([4]; at 5 mM) | Nagg average (aggregation number) [7]
1 | CCCCCCCCCCOC1O[C@H](CO)[C@@H](O[C@@H]2O[C@H](CO)[C@@H](O)[C@H](O)[C@H]2O)[C@H](O)[C@H]1O (some centres unmarked) [Decyl Cellobioside] | 1.8 ± 0.3 | 2.2 ± 0.7 | 1.8 ± 0.2 | 50 | – | – | – | – | – | –
2 | CCCCCCCCCCO[C@@H]1O[C@H](CO)[C@@H](O)[C@H](O)[C@H]1O [Decyl Glucoside] | 1.9 ± 0.9 | 2.1 ± 0.7 | – | 42 | 90 | 40 | 2.2 | – | – | –
3 | CCCCCCCCCCOC1O[C@H](CO[C@H]2O[C@H](CO)[C@H](O)[C@H](O)[C@H]2O)[C@@H](O)[C@H](O)[C@H]1O (some centres unmarked) [Decyl Melibioside] | 3.9 ± 0.1 | 3.9 ± 0.1 | 3.3 ± 0.2 | 68 | – | – | – | – | – | –
4 | CCCCCCCCCCCCOC1O[C@H](CO)[C@@H](O[C@@H]2O[C@H](CO)[C@@H](O)[C@H](O)[C@H]2O)[C@H](O)[C@H]1O (some centres unmarked) [Dodecyl Cellobioside] | – | 0.29 ± 0.4 | 0.18 ± 0.01 | 49 | – | – | – | – | – | –
5 | CCCCCCCCCCCCO[C@@H]1O[C@H](CO)[C@@H](O)[C@H](O)[C@H]1O [Dodecyl Glucoside] | – | – | – | 34 | – | – | – | remained insoluble | – | –
6 | CCCCCCCCCCCCOC1O[C@H](CO[C@H]2O[C@H](CO)[C@H](O)[C@H](O)[C@H]2O)[C@@H](O)[C@H](O)[C@H]1O (some centres unmarked) [Dodecyl Melibioside] | 0.3 ± 0.00 | 0.31 ± 0.005 | 0.30 ± 0.02 | 51 | – | – | – | – | above 300 | 65
7 | CCCCCCCCOC1O[C@H](CO)[C@@H](O[C@@H]2O[C@H](CO)[C@@H](O)[C@H](O)[C@H]2O)[C@H](O)[C@H]1O (some centres unmarked) [Octyl Cellobioside] | 19.7 ± 2.2 | 21 ± 2 | 19 ± 3 | 50 | – | – | – | – | – | –
8 | CCCCCCCCO[C@@H]1O[C@H](CO)[C@@H](O)[C@H](O)[C@H]1O [Octyl Glucoside] | 22.5 ± 2.4 | 20 ± 3 | – | 42 | – | – | 20 | – | – | –
9 | CCCCCCCCOC1O[C@H](CO[C@H]2O[C@H](CO)[C@H](O)[C@H](O)[C@H]2O)[C@@H](O)[C@H](O)[C@H]1O (some centres unmarked) [Octyl Melibioside] | 39.9 ± 5.2 | 40 ± 5 | 44 ± 5 | 73 | – | – | – | – | – | –
10 | CCCCCCCCCCCCOS(=O)(=O)[O-].[Na+] [SDS, reference compound] | 8.5 ± 1.7 | 8.4 ± 2 | – | 61 | – | – | 8.2 | – | – | –
